From paper PMC11274654 (Biomedicines, 2024)

Tests used:
[1] = test system: bone formation in femur metaphysis of OVX rats; test: OVX osteopenia model, dynamic bone histomorphometry (double calcein labeling); format: in vivo, SD rats; conditions: 235 mg/kg oral, 3 months
Description: The 10-month-old (265 ± 20 g) SD rats were ovariectomized (OVX) bilaterally and left for 3 months to develop osteopenia. Ovary-intact sham-operated animals were used as a control. A live animal micro-CT was performed to confirm osteopenia, followed by dividing the animals into 3 groups: Sham + vehicle (water, oral), OVX + vehicle (water, oral), and OVX + MTZ (235 mg/kg, oral). Each group had 9 rats, and treatment were administered for 3 months. Calcein (20 mg/kg, s.c.) was injected twice before sacrificing at 10-day intervals.
Two calcein injections were spaced ten days apart for double calcein labeling to perform dynamic histomorphometric assessments. A previously published protocol was used to calculate the bone formation rate/total bone surface (BFR/BS), mineralizing surface/bone surface (MS/BS), and mineral apposition rate (MAR).

[2] = test system: trabecular bone of OVX osteopenic rats; test: OVX osteopenia model, micro-CT of trabecular bone; format: in vivo, SD rats; conditions: 235 mg/kg oral, 3 months
Description: The 10-month-old (265 ± 20 g) SD rats were ovariectomized (OVX) bilaterally and left for 3 months to develop osteopenia. Ovary-intact sham-operated animals were used as a control. A live animal micro-CT was performed to confirm osteopenia, followed by dividing the animals into 3 groups: Sham + vehicle (water, oral), OVX + vehicle (water, oral), and OVX + MTZ (235 mg/kg, oral). Each group had 9 rats, and treatment were administered for 3 months. Calcein (20 mg/kg, s.c.) was injected twice before sacrificing at 10-day intervals. A SkyScan 1076 μCT scanner (SkyScan, Ltd., Kartuizersweg, Kontich, Belgium) was used to perform a high-resolution μCT for the two-dimensional and three-dimensional assessment of excised bones. The rat bone scanning process used an isotropic voxel pixel size of 18 μm and an X-ray source of 70 kV and […]. Utilizing the SkyScan Nrecon software (Version: 1.7.0.4), cross-sectional reconstruction was performed. In order to examine the trabecular region of the femur and tibia, 100 slices were used to draw the region of interest (ROI), which was limited to the secondary spongiosa region 1.5 mm from the growth plate’s distal border. The primary spongiosa and cortical bone were not included in the ROI. A ROI was drawn on 70 slices of the mid-vertebral region for the L5 vertebral study. The Batman software (Version: 1.16.8.0+), with trabecular (3D) bone analysis programs was used for quantification.

[3] = test system: Runx2 expression in C3H10T1/2 cells; test: Western blotting of Runx2 in C3H10T1/2 cells; format: cell-based, murine; conditions: 10 nM
Description: (§1) Western blotting was performed as previously described. Briefly, whole-cell extracts (WCEs) were prepared at indicated time points using RIPA lysis buffer, and aliquots of 30 μg protein per lane were loaded and resolved on SDS-PAGE (10%), followed by blotting onto the PVDF membrane (Millipore Inc., Burlington, MA, USA). The membrane was blocked in 1% BSA, followed by immunoblotting with primary antibodies: Runx2 (ab 76956) (1:1000), pGSK (9323S) (1:1000), and GSK (9315S) (1:1000) at 4 °C overnight. Anti-rabbit HRP secondary antibody (Sigma, catalog number A0545) (1:3000) was used for Runx2, pGSK3β, and GSK3β. Bands were detected by incubating the membranes with ECL substrate (Thermo Fisher Scientific, Waltham, MA, USA) and developed on ChemiDoc (Image Quant LAS 4000, GE Healthcare, Hatfield, UK). Blots were re-probed after washing with mild stripping buffer (1.5% Glycine, 0.1% SDS, and 1% Tween 20).

[4] = test system: bone regeneration at the femur osteotomy site; test: Femur osteotomy model, oral MTZ; format: in vivo, Sprague Dawley rats; conditions: 117 mg/kg and 235 mg/kg oral daily, 12 days
Description: Femur osteotomy was carried out in adult female Sprague Dawley (SD) rats (200 ± 20 g, 3 months old) and 3-month post-ovariectomized osteopenic SD rats (280 ± 20 g, 6 months old) by inserting a drill bit with a diameter of 0.8 mm from the anterior to the posterior mid-diaphysis of the right femur.
The human equivalent dose for rats is 235 mg/kg; half of this amount, 117 mg/kg, was used for the study. Doses of MTZ (117 mg/kg and 235 mg/kg) were administered daily by the oral route for 12 days. For the formulation study, MTZ@In situ gel and unformulated MTZ were administered every 3 days (total of 4 injections) for a period of 12 days via the subcutaneous route in the osteotomy animal. Each rat received 20 mg/kg, s.c. of bone-seeking fluorochrome calcein 24 h before sacrifice in order to evaluate the new bone formation at the fractured callus.
A SkyScan 1076 μCT scanner (SkyScan, Ltd., Kartuizersweg, Kontich, Belgium) was used to perform a high-resolution μCT for the two-dimensional and three-dimensional assessment of excised bones. The rat bone scanning process used an isotropic voxel pixel size of 18 μm and an X-ray source of 70 kV and […]. Utilizing the SkyScan Nrecon software (Version: 1.7.0.4), cross-sectional reconstruction was performed. […] The Batman software (Version: 1.16.8.0+), with trabecular (3D) bone analysis programs was used for quantification.

mouse BMSCs (mBMSCs) = test: Nodule mineralization (Alizarin Red S) in mBMSCs; format: cell-based; conditions: 21 days post-treatment, differentiation medium
Description: Rat and mouse BMSCs were seeded at a density of 1 × 10^6 cells/well in a 6-well plate, vehicle or MTZ (1 nM) treatment was conducted, and the media were changed every alternate day for 21 days using a differentiation medium [10% FBS, β-glycerophosphate (10 mM), ascorbic acid (50 µg/mL), and dexamethasone (100 nM) in α-MEM].
Cells were fixed with 10% formalin for 15 min and stained with Alizarin Red for 1 h after 21 days of culture. Moreover, 10% cetylpyridinium chloride (Sigma #C0732) was used to quantify mineralized nodules at a 595 nm wavelength.

[5] = test system: GSK3β phosphorylation in RCO; test: Western blotting of p-GSK/GSK in RCO; format: cell-based, rat; conditions: 10 nM
Description: as §1

[6] = femur and tibia metaphyses, OVX rats
[7] = proximal femur and tibia metaphyses, OVX rats

Cc1ncc([N+](=O)[O-])n1CCO [Metronidazole]
BFR [1]: reversed all parameters to sham levels | MAR [1]: reversed all parameters to sham levels | MS/BS [1]: reversed all parameters to sham levels | Trabecular bone parameters at vertebra (L5) ([2]; L5, OVX rats): failed to restore | Trabecular number (Tb.N) [2, 6]: significant enhancement | Trabecular spacing (Tb.sp) [2, 6]: restored trabecular spacing (Tb.sp) to sham levels | Trabecular thickness (Tb.Th) [2, 6]: complete restoration | BMD [2, 7]: significantly increased | Bone volume (BV/TV) [2, 7]: significantly increased | Runx2 expression [3]: increased | Bone volume at the osteotomy site [4]: increased | Calcein intensity at the osteotomy site [4]: increased | Osteogenic differentiation and mineralized nodule formation (mouse BMSCs (mBMSCs)): stimulated | GSK3β phosphorylation [5]: increased GSK3β phosphorylation in a time-dependent manner | Time of maximum effect on GSK3β phosphorylation [5]: 15 min
